The test system of one data set is H14 cells. Put plainly: In vitro assay of uptake of [14C]-alanine. The data set is classed as cell-based, hamster. The settings on record: Mesocricetus auratus. The procedure:
Baby hamster kidney cells (BHK) transfected with the cDNA of human IBAT (H14 cells) are seeded at 60,000 cells/well in 96 well Top-Count tissue culture plates for assays run within in 24 hours of seeding, 30,000 cells/well for assays run within 48 hours, and 10,000 cells/well for assays run within 72 hours.
On the day of assay, the cell monolayer is gently washed once with 100 μl assay buffer (Dulbecco's Modified Eagle's medium with 4.5 g/L glucose+0.2% (w/v) fatty acid free bovine serum albumin-(FAF)BSA). To each well 50 μl of a two-fold concentrate of test compound in assay buffer is added along with 50 μl of 6 μM [^14C]-taurocholate in assay buffer (final concentration of 3 μM [^14C]-taurocholate). The cell culture plates are incubated 2 hours at 37° C. prior to gently washing each well twice with 100 μl 4° C. Dulbecco's phosphate-buffered saline (PBS) containing 0.2% (w/v) (FAF)BSA. The wells are then gently washed once with 100 μl 4° C. PBS without (FAF)BSA. To each 200 μl of liquid scintillation counting fluid is added, the plates are heat sealed and shaken for 30 minutes at room temperature prior to measuring the amount of radioactivity in each well on a Packard Top-Count instrument.
In Vitro Assay of Compounds that Inhibit Uptake of [^14C3-Alanine
The alanine uptake assay is performed in an identical fashion to the taurocholate assay, with the exception that labeled alanine is substituted for the labeled taurocholate.

The test system of data set [1] is Rat Ileal Uptake of [14C]-Taurocholate. Put plainly: In vivo assay of rat ileal uptake of [14C]-taurocholate into bile (ileal loop). Particulars: for activity at 500 µM: 0.5 mM; for activity at 100 µM: read-out: % of Control Transport of TC in Rat Ileum @ 0.1 mM. How it is done:
In Vivo Assay of Compounds that Inhibit Rat Ileal Uptake of [^14C]-Taurocholate into Bile
(See “Metabolism of 3α,7β-dihydroxy-7α-methyl-5β-cholanoic acid and 3α,7β-dihydroxy-7α-methyl-5β-cholanoic acid in hamsters” in Biochimica et Biophysica Acta 833 (1985) 196-202 by Une et al.)
Male wistar rats (200-300 g) are anesthetized with inactin @100 mg/kg. Bile ducts are cannulated with a 10″ length of PE10 tubing. The small intestine is exposed and laid out on a gauze pad. A canulae (⅛″ luer lock, tapered female adapter) is inserted at 12 cm from the junction of the small intestine and the cecum. A slit is cut at 4 cm from this same junction (utilizing a 8 cm length of ileum). 20 ml of warm Dulbecco's phosphate buffered saline, pH 6.5 (PBS) is used to flush out the intestine segment. The distal opening is cannulated with a 20 cm length of silicone tubing (0.02″ I.D.×0.037″ O.D.). The proximal cannulae is hooked up to a peristaltic pump and the intestine is washed for 20 min with warm PBS at 0.25 ml/min. Temperature of the gut segment is monitored continuously. At the start of the experiment, 2.0 ml of control sample ([^14C]-taurocholate @ 0.05 mi/ml with 5 mM cold taurocholate) is loaded into the gut segment with a 3 ml syringe and bile sample collection is begun. Control sample is infused at a rate of 0.25 ml/min for 21 min. Bile samples fractions are collected every 3 minute for the first 27 minutes of the procedure. After the 21 min of sample infusion, the ileal loop is washed out with 20 ml of warm PBS (using a 30 ml syringe), and then the loop is washed out for 21 min with warm PBS at 0.25 ml/min. A second perfusion is initiated as described above but this with test compound being administered as well (21 min administration followed by 21 min of wash out) and bile sampled every 3 min for the first 27 min. If necessary, a third perfusion is performed as above that typically contains the control sample.

Another data set addresses T1, human IBAT (Homo sapiens, UniProt Q12908).
T1 construct: expressed in transfected cells; host or cells: Baby hamster kidney (BHK) cells, clone H14
T1 sequence (Q12908 1-348): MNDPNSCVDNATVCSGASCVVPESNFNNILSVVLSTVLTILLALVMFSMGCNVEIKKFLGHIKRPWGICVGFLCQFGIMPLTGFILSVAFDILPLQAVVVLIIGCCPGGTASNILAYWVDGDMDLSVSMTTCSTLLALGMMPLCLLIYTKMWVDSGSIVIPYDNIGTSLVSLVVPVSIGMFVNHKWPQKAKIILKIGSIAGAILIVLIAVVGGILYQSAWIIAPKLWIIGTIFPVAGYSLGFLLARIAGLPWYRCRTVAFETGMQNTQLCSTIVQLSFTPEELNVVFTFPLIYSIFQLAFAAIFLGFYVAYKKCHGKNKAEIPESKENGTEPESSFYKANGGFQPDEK
Put plainly: In vitro assay of IBAT-mediated uptake of [14C]-taurocholate (TC) in H14 cells. Type of data set: cell-based. The method, boiled down: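 BHK cells stably expressing human IBAT (H14) were incubated 2 h at 37° C with compound and 3 μM final [14C]-taurocholate in DMEM (4.5 g/L glucose) plus 0.2% fatty acid-free BSA. After cold PBS washes, cell-associated radioactivity was measured by scintillation counting.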

For data set [2], the system named is Rabbit Ileal brush border membranes. Put plainly: [3H]taurocholate uptake in rabbit brush border membrane vesicles (BBMV). The settings on record: read-out: TC-uptake (BBMV) IC(50). The data set is classed as biochemical. How it is done:
[^3H]Taurocholate Uptake in Rabbit Brush Border Membrane Vesicles (BBMV)
Rabbit Ileal brush border membranes were prepared from frozen iheal mucosa by the calcium precipitation method describe by Malathi et al. (Reference: (1979) Biochimica Biophysica Acta, 554, 259). The method for measuring taurocholate was essentially as described by Kramer et al. (Reference: (1992) Biochimica Biophysica Acta, 1111, 93) except the assay volume was 200 μl instead of 100 μl.

The test system of another data set is fecal bile acid (FBA). Put plainly: Rat gavage assay (fecal bile acid increase). The data set is classed as in vivo.
[3] abbreviates: Rattus norvegicus, read-out: % of Control Transport of TC in Rat Ileum.
[4] abbreviates: H14 cells, Table 5, read-out: IC50 uM (In vitro Taurocholate Cell Uptake).
Where [5] appears, read: In Vitro Taurocholate Uptake, Table 10, read-out: Human TC IC50.

SMILES strings stand for the structures. Read-outs that look alike come from different tables or passages of the source.

What is called inhibition is the change of the read-out against control, counted positive when it falls. With `CCCC[C@]1(CC)CS(=O)(=O)c2ccccc2[C@@H](c2ccccc2)C1=O` (relative stereo) [Example 5b, trans-3-Butyl-3-ethyl-5-phenyl-2,3-dihydro-benzothiepin-(5H) 4-one-1,1-dioxide], in the data set on H14 cells, 100 µM produced 0% inhibition. The activity at 500 µM in data set [1] (setting [3]) stood at 72.9 ± 5.4%. The IC50 at human IBAT (setting [4]) turned out to be 40 µM.

`CCCC[C@@]1(CC)C[C@@H](c2ccccc2)c2ccccc2S(=O)(=O)C1` (relative stereo) [Example 9a, cis-3-Butyl-3-ethyl-5-phenyl-2,3,4,5-tetrahydrobenzothiepine-1,1-dioxide] gave an inhibition at 25 µM in the data set on H14 cells of 0%. In data set [1] (Rattus norvegicus), the activity at 100 µM stood at 53.7%. The IC50 at human IBAT (setting [4]) came to 5 µM.

`CCCC[C@]1(CC)CS(=O)(=O)c2ccccc2[C@H](c2ccccc2)[C@@H]1O` [Example 6c, (3α,4α,5α) 3-Butyl-3-ethyl-4-hydroxy-5-phenyl-2,3,4,5-tetrahydrobenzothiepine-1,1-dioxide] had an inhibition at 100 µM in the data set on H14 cells of 58.5%. Also, in data set [1] (Rattus norvegicus, 0.4 mM, read-out: % of Control Transport of TC in Rat Ileum), the activity at 400 µM was 68.8%. Moreover, the IC50 on human IBAT (setting [4]) was 2 µM.

`CCCC[C@]1(CC)CS(=O)(=O)c2ccccc2[C@@H](c2ccccc2)[C@H]1O` [Example 6d, (3α,4β,5β) 3-Butyl-3-ethyl-4-hydroxy-5-phenyl-2,3,4,5-tetrahydrobenzothiepine-1,1-dioxide] registered an inhibition at 100 µM in the data set with H14 cells of 77.7%. Moreover, the IC50 in data set [2] came out at 1500 nM; on human IBAT (setting [4]) it was 0.6 µM; on human IBAT (Table 6, read-out: TC-uptake (H14 cells) IC(50)), 0.6 µM. Moreover, the activity at 150 µM in data set [1] (Rattus norvegicus, 0.15 mM, read-out: % of Control Transport of TC in Rat Ileum) amounted to 30.2%. In data set [1] (setting [3]), the activity at 500 µM is 16.1%. For the same compound, the EC50 in data set [1] (rat ileal loop, read-out: TC-uptake Ileal Loop EC(50)) turned out to be 31000 nM.

As to `CCCC[C@]1(CC)CS(=O)(=O)c2cc(OC)ccc2[C@H](c2ccccc2)[C@@H]1O` [Example 26, (3α,4α,5α) 3-Butyl-3-ethyl-4-hydroxy-8-methoxy-5-phenyl-2,3,4,5-tetrahydrobenzothiepine-1,1-dioxide], in the data set on H14 cells, the inhibition at 25 µM turned out to be 31%. In addition, the activity at 100 µM in data set [1] (Rattus norvegicus) is 87.9%. The IC50 on human IBAT (setting [4]) was determined as 2 µM.

Usually melting point stands for the temperature of the solid-liquid transition. In the case of `CC1(C)CS(=O)(=O)c2ccc(N)cc2[C@@H](c2ccccc2)[C@H]1O` [Example 288], the melting point fell in the range of 185 to 186 °C. Besides, the inhibition at 6.25 µM in the data set on H14 cells (@ 6.25 μM, read-out: Alanine Uptake Percent Inhibition @ μM) worked out at 10%.

As for `CCCCC1(CCCC)CS(=O)(=O)c2ccc(N(C)C)cc2[C@@H](c2ccc(OCCCCCc3nn[nH]n3)cc2)[C@H]1O` [Example 1420, (4R-cis)-3,3-Dibutyl-7-(dimethylamino)-2,3,4,5-tetrahydro-5-[4-[[5-(1H-tetrazol-5-yl)pentyl]oxy]phenyl]-1-benzothiepin-4-ol 1,1-dioxide], the melting point was in the range of 80 to 85 °C. Moreover, the “Delta (micromoles fecal bile acid per day)” value with fecal bile acid (FBA) (dose 2 mg/kg/day) was 53.1 micromoles fecal bile acid per day. Further, the “Delta (micromoles fecal bile acid per day)” value with fecal bile acid (FBA) (dose .016 mg/kg/day) is 29.6 micromoles fecal bile acid per day. Moreover, the “Delta (micromoles fecal bile acid per day)” value in the data set on fecal bile acid (FBA) (dose .08 mg/kg/day) is given as 38.1 micromoles fecal bile acid per day. In addition, the “Delta (micromoles fecal bile acid per day)” value in the data set with fecal bile acid (FBA) (dose .4 mg/kg/day) is listed as 45 micromoles fecal bile acid per day. Besides, the IC50 on human IBAT (setting [5]) is 0.011 µM.

As to `CCCCC1(CCCC)CS(=O)(=O)c2ccc(N(C)C)cc2[C@@H](c2ccc(OCCCCCOc3cc(C(=O)O)nc(C(=O)O)c3)cc2)[C@H]1O` [Example 1421], the melting point is 143 °C. Moreover, the “Delta (micromoles fecal bile acid per day)” value with fecal bile acid (FBA) (dose 2 mg/kg/day) was 57.8 micromoles fecal bile acid per day. For the same compound, the “Delta (micromoles fecal bile acid per day)” value with fecal bile acid (FBA) (dose .016 mg/kg/day) is 4.7 micromoles fecal bile acid per day. Further, in the data set on fecal bile acid (FBA) (dose .08 mg/kg/day), the “Delta (micromoles fecal bile acid per day)” value is listed as 25.3 micromoles fecal bile acid per day. Further, the “Delta (micromoles fecal bile acid per day)” value in the data set with fecal bile acid (FBA) (dose .4 mg/kg/day) is recorded as 27.7 micromoles fecal bile acid per day. Further, the IC50 on human IBAT (setting [5]) is 0.004 µM.

Take `CCCCC1(CCCC)CS(=O)(=O)c2ccc(N(C)C)cc2[C@@H](c2ccc(OCc3cccc(CCC(=O)O)n3)cc2)[C@H]1O` [Example 1430, (4R-cis)-6-[[4-[3,3-Dibutyl-7-(dimethylamino)-2,3,4,5-tetrahydro-4-hydroxy-1,1-dioxido-1-benzothiepin-5-yl]phenoxy]methyl]-2-pyridinepropanoic acid]: the melting point was 105 to 107 °C. Moreover, the “Delta (micromoles fecal bile acid per day)” value in the data set with fecal bile acid (FBA) (dose 2 mg/kg/day) is 51.2 micromoles fecal bile acid per day. The “Delta (micromoles fecal bile acid per day)” value in the data set on fecal bile acid (FBA) (dose .016 mg/kg/day) is recorded as −5.6 micromoles fecal bile acid per day. Further, the “Delta (micromoles fecal bile acid per day)” value with fecal bile acid (FBA) (dose .08 mg/kg/day) is 20.7 micromoles fecal bile acid per day. In addition, in the data set with fecal bile acid (FBA) (dose .4 mg/kg/day), the “Delta (micromoles fecal bile acid per day)” value is 50.4 micromoles fecal bile acid per day. Besides, the IC50 at human IBAT (setting [5]) amounted to 0.003 µM.

`CCCCC1(CCCC)CS(=O)(=O)c2ccc(N(C)C)cc2[C@@H](c2ccc(OCCOCCC(C(=O)O)C(=O)O)cc2)[C@H]1O` [Example 1432, (4S-cis)-[2-[2-[4-[3,3-Dibutyl-7-(dimethylamino)-2,3,4,5-tetrahydro-4-hydroxy-1,1-dioxido-1-benzothiepin-5-yl]phenoxy]ethoxy]ethyl]propanedioic acid] showed a melting point of 119.5 °C. Also, the “Delta (micromoles fecal bile acid per day)” value with fecal bile acid (FBA) (dose 5 mg/kg/day) is recorded as 36.2 micromoles fecal bile acid per day. For the same compound, the “Delta (micromoles fecal bile acid per day)” value in the data set with fecal bile acid (FBA) (dose .04 mg/kg/day) is on record as 2.4 micromoles fecal bile acid per day. The “Delta (micromoles fecal bile acid per day)” value in the data set on fecal bile acid (FBA) (dose .2 mg/kg/day) is recorded as 9.7 micromoles fecal bile acid per day. In addition, at human IBAT (setting [5]), the IC50 was 0.026 µM.

The values above are taken from patent publication US6784201B2, “Benzothiepines having activity as inhibitors of ileal bile acid transport and taurocholate uptake” (G.D. Searle & Company, priority 1994, dated 2004).
